Experimental data reported in ChEMBL document CHEMBL2157896, “Engineering pH-gated transitions for selective and efficient double-strand DNA photocleavage in hypoxic tumors” (J Med Chem, 2011).
Active and inactive are the calls of the source. No cut-off for these calls is given here.

Key:
Nucleic Acid [1] = test: Induction of photochemical DNA cleavage in Escherichia coli pBR322 assessed as form 2 level at 15 uM in pH 6.0 phosphate buffer measured after 4 mins of UV irradiation; assay type: nucleic-acid assay
Nucleic Acid [2] = test: Induction of photochemical DNA cleavage in Escherichia coli pBR322 assessed as supercoiled DNA level at 15 uM in pH 6.0 phosphate buffer measured after 2 mins of UV irradiation; assay type: nucleic-acid assay
A-375 = test: Toxicity in human A375 cells at <10 uM under dark condition incubated for 72 hrs by MTT assay; assay type: cell-based; conditions: a-375, 72 h
Nucleic Acid [3] = test: Induction of photochemical DNA cleavage in Escherichia coli pBR322 assessed as form I level at 15 uM in pH 7.0 phosphate buffer measured after 10 mins of UV irradiation; assay type: nucleic-acid assay
Nucleic Acid [4] = test: Induction of photochemical DNA cleavage in Escherichia coli pBR322 assessed as form 3 level at 15 uM in pH 7.0 phosphate buffer measured after 0.5 mins of UV irradiation; assay type: nucleic-acid assay
Nucleic Acid [5] = test: Induction of photochemical DNA cleavage in Escherichia coli pBR322 assessed as form 2 level at 15 uM in pH 6.0 phosphate buffer measured after 8 mins of UV irradiation; assay type: nucleic-acid assay
Nucleic Acid [6] = test: Induction of DNA damage in human […] cells at 30 uM incubated for 3 hrs using cells exposed to UV irradiation for 4 to 24 hrs by single cell gel electrophoresis; assay type: cell-based; conditions: TDE = time-dependent effect
Nucleic Acid [7] = test: Induction of photochemical DNA cleavage in Escherichia coli pBR322 assessed as form 3 level at 15 uM in pH 7.0 phosphate buffer measured after 1 min of UV irradiation; assay type: nucleic-acid assay
Nucleic Acid [8] = test: Induction of photochemical DNA cleavage in Escherichia coli pBR322 assessed as form 2 level at 15 uM in pH 7.0 phosphate buffer measured after 6 mins of UV irradiation; assay type: nucleic-acid assay
Nucleic Acid [9] = test: Induction of photochemical DNA cleavage in Escherichia coli pBR322 assessed as form I level at 15 uM in pH 6.0 phosphate buffer measured after 4 mins of UV irradiation; assay type: nucleic-acid assay
Nucleic Acid [10] = test: Induction of photochemical DNA cleavage in Escherichia coli pBR322 assessed as form 2 level at 15 uM in pH 7.0 phosphate buffer measured after 2 mins of UV irradiation; assay type: nucleic-acid assay
Nucleic Acid [11] = test: Induction of photochemical DNA cleavage in Escherichia coli pBR322 assessed as form 2 level at 15 uM in pH 8.0 phosphate buffer measured after 10 mins of UV irradiation; assay type: nucleic-acid assay
Nucleic Acid [12] = test: Induction of photochemical DNA cleavage in Escherichia coli pBR322 assessed as form 2 level at 15 uM in pH 8.0 phosphate buffer measured after 0.5 mins of UV irradiation; assay type: nucleic-acid assay
Nucleic Acid [13] = test: Induction of photochemical DNA cleavage in Escherichia coli pBR322 assessed as form I level at 15 uM in pH 7.0 phosphate buffer measured after 2 mins of UV irradiation; assay type: nucleic-acid assay
Nucleic Acid [14] = test: Induction of DNA cleavage in Escherichia coli pBR322 at 5 uM in pH 6.0 phosphate buffer measured after of UV irradiation; assay type: nucleic-acid assay
Nucleic Acid [15] = test: Induction of photochemical DNA cleavage in Escherichia coli pBR322 assessed as form I level at 15 uM in pH 6.0 phosphate buffer measured after 2 mins of UV irradiation; assay type: nucleic-acid assay
Nucleic Acid [16] = test: Induction of photochemical DNA cleavage in Escherichia coli pBR322 assessed as form 2 level at 15 uM in pH 8.0 phosphate buffer measured after 2 mins of UV irradiation; assay type: nucleic-acid assay
Nucleic Acid [17] = test: Induction of photochemical DNA cleavage in Escherichia coli pBR322 assessed as form 3 level at 15 uM in pH 6.0 phosphate buffer measured after 2 mins of UV irradiation; assay type: nucleic-acid assay
Nucleic Acid [18] = test: Induction of photochemical DNA cleavage in Escherichia coli pBR322 assessed as disappearance of supercoiled DNA at 15 uM in pH 8.0 phosphate buffer after 10 mins of UV irradiation; assay type: nucleic-acid assay
Nucleic Acid [19] = test: Induction of photochemical DNA cleavage in Escherichia coli pBR322 assessed as form I level at 15 uM in pH 6.0 phosphate buffer measured after 6 mins of UV irradiation; assay type: nucleic-acid assay
Nucleic Acid [20] = test: Induction of photochemical DNA cleavage in Escherichia coli pBR322 assessed as form 3 level at 15 uM in pH 7.0 phosphate buffer measured after 2 mins of UV irradiation; assay type: nucleic-acid assay
Nucleic Acid [21] = test: Induction of photochemical DNA cleavage in Escherichia coli pBR322 assessed as form I level at 15 uM in pH 6.0 phosphate buffer measured after 8 mins of UV irradiation; assay type: nucleic-acid assay
Nucleic Acid [22] = test: Induction of photochemical DNA cleavage in Escherichia coli pBR322 assessed as form I level at 15 uM in pH 7.0 phosphate buffer measured after 6 mins of UV irradiation; assay type: nucleic-acid assay
Nucleic Acid [23] = test: Induction of photochemical DNA cleavage in Escherichia coli pBR322 assessed as form I level at 15 uM in pH 7.0 phosphate buffer measured after 8 mins of UV irradiation; assay type: nucleic-acid assay
Nucleic Acid [24] = test: Induction of photochemical DNA cleavage in Escherichia coli pBR322 assessed as form I level at 15 uM in pH 8.0 phosphate buffer measured after 1 min of UV irradiation; assay type: nucleic-acid assay
Nucleic Acid [25] = test: Induction of photochemical DNA cleavage in Escherichia coli pBR322 assessed as form I level at 15 uM in pH 7.0 phosphate buffer measured after 1 min of UV irradiation; assay type: nucleic-acid assay
Nucleic Acid [26] = test: Induction of photochemical DNA cleavage in Escherichia coli pBR322 assessed as form 2 level at 15 uM in pH 8.0 phosphate buffer measured after 6 mins of UV irradiation; assay type: nucleic-acid assay
Nucleic Acid [27] = test: Induction of photochemical DNA cleavage in Escherichia coli pBR322 assessed as form 2 level at 15 uM in pH 6.0 phosphate buffer measured after 6 mins of UV irradiation; assay type: nucleic-acid assay
Nucleic Acid [28] = test: Induction of photochemical DNA cleavage in Escherichia coli pBR322 assessed as form 3 level at 15 uM in pH 6.0 phosphate buffer measured after 10 mins of UV irradiation; assay type: nucleic-acid assay
Nucleic Acid [29] = test: Induction of photochemical DNA cleavage in Escherichia coli pBR322 assessed as form 3 level at 15 uM in pH 6.0 phosphate buffer measured after 1 min of UV irradiation; assay type: nucleic-acid assay
Nucleic Acid [30] = test: Induction of DNA cleavage in Escherichia coli pBR322 at 10 uM in pH 6.0 phosphate buffer measured after of UV irradiation; assay type: nucleic-acid assay
Nucleic Acid [31] = test: Induction of photochemical DNA cleavage in Escherichia coli pBR322 assessed as form 2 level at 15 uM in pH 7.0 phosphate buffer measured after 8 mins of UV irradiation; assay type: nucleic-acid assay
Nucleic Acid [32] = test: Induction of photochemical DNA cleavage in Escherichia coli pBR322 assessed as form I level at 15 uM in pH 8.0 phosphate buffer measured after 8 mins of UV irradiation; assay type: nucleic-acid assay
Nucleic Acid [33] = test: Induction of photochemical DNA cleavage in Escherichia coli pBR322 assessed as form 2 level at 15 uM in pH 6.0 phosphate buffer measured after 2 mins of UV irradiation; assay type: nucleic-acid assay
Nucleic Acid [34] = test: Induction of photochemical DNA cleavage in Escherichia coli pBR322 assessed as form 3 level at 15 uM in pH 7.0 phosphate buffer measured after 8 mins of UV irradiation; assay type: nucleic-acid assay

Q: For NCCCC[C@H](N)C(=O)NCCCC[C@H](N)C(=O)Nc1ccc(C#Cc2c(F)c(F)nc(F)c2F)cc1.O=C(O)C(F)(F)F, which Activity (Nucleic Acid [1]) is on record?
A: The Activity was 65.1%.

Q: What about the Activity (Nucleic Acid [2]) of the same compound?
A: Its Activity is < 17%.

Q: What about the Activity (A-375) of the same compound?
A: Its Activity is “Non-toxic”.

Q: What about the Activity (Nucleic Acid [3]) of the same compound?
A: The Activity was 11.7%.

Q: What about the Activity (Nucleic Acid [4]) of the same compound?
A: Its Activity is 0%.

Q: And the Activity (Nucleic Acid [5])?
A: Its Activity is 35%.

Q: What about the Activity (Nucleic Acid [6]) of the same compound?
A: Its Activity is “tde”.

Q: And the Activity (Nucleic Acid [7])?
A: Its Activity is 0%.

Q: What about the Activity (Nucleic Acid [8]) of the same compound?
A: Its Activity is 47.2%.

Q: What about the Activity (Nucleic Acid [9]) of the same compound?
A: Its Activity is 0%.

Q: What about the Activity (Nucleic Acid [10]) of the same compound?
A: Its Activity is 41.5%.

Q: And the Activity (Nucleic Acid [11])?
A: Its Activity is 52.3%.

Q: What about the Activity (Nucleic Acid [12]) of the same compound?
A: Its Activity is 13.6%.

Q: And the Activity (Nucleic Acid [13])?
A: The Activity was 45.8%.

Q: And the Activity (Nucleic Acid [14])?
A: The Activity was 50%.

Q: What about the Activity (Nucleic Acid [15]) of the same compound?
A: The Activity was 17.3%.

Q: What about the Activity (Nucleic Acid [16]) of the same compound?
A: Its Activity is 22.2%.

Q: What about the Activity (Nucleic Acid [17]) of the same compound?
A: The Activity was 28.4%.

Q: What about the Activity (Nucleic Acid [18]) of the same compound?
A: The Activity was “Active”.

Q: What about the Activity (Nucleic Acid [19]) of the same compound?
A: The Activity was 0%.

Q: And the Activity (Nucleic Acid [20])?
A: Its Activity is 12.7%.

Q: And the Activity (Nucleic Acid [21])?
A: Its Activity is 0%.

Q: And the Activity (Nucleic Acid [22])?
A: The Activity was 24.7%.

Q: And the Activity (Nucleic Acid [23])?
A: The Activity was 20.9%.

Q: And the Activity (Nucleic Acid [24])?
A: The Activity was 83.9%.

Q: And the Activity (Nucleic Acid [25])?
A: The Activity was 52.7%.

Q: What about the Activity (Nucleic Acid [26]) of the same compound?
A: Its Activity is 59.2%.

Q: And the Activity (Nucleic Acid [27])?
A: Its Activity is 48.1%.

Q: What about the Activity (Nucleic Acid [28]) of the same compound?
A: The Activity was 78.7%.

Q: What about the Activity (Nucleic Acid [29]) of the same compound?
A: The Activity was 17.1%.

Q: What about the Activity (Nucleic Acid [30]) of the same compound?
A: Its Activity is 75%.

Q: What about the Activity (Nucleic Acid [31]) of the same compound?
A: Its Activity is 51%.

Q: And the Activity (Nucleic Acid [32])?
A: Its Activity is 42.3%.

Q: And the Activity (Nucleic Acid [33])?
A: Its Activity is 54.2%.

Q: And the Activity (Nucleic Acid [34])?
A: The Activity was 28.1%.
